Experimental data: patent US8809500B2, “Complexes comprising mammalian raptor polypeptide and mammalian mTOR polypeptide” (Whitehead Institute For Biomedical Research, priority 2002, dated 2014)

Legend:
mTOR = target: T1, mTOR (Homo sapiens, UniProt P42345); test: In vitro kinase assay for mTOR activity, endogenous mTOR immunoprecipitates, GST-S6K1 substrate; assay type: biochemical; conditions: for sensitivity of kinase activity of immunoprecipitates of endogenous mTOR: 20 μM inhibitor, added 10 minutes prior to kinase assay; for effect on mTOR kinase activity of mTOR immunoprecipitates from treated cells: cells treated for 10 minutes: 500 mM sucrose, 1 mM H2O2, 1 μm valinomycin A, 100 mM 2-deoxyglucose
T1 construct: the kinase activity of immunoprecipitates of endogenous mTOR depends on the presence of mTOR; endogenous in cells; host or cells: HEK293T
Protocol: FIG. 8A is a gel showing deprivation of amino acids, leucine, or glucose increases the stability of raptor-mTOR complex and decreases mTOR kinase activity, effects reversed by stimulation with leucine or glucose. HEK293T cells were incubated for 50 minutes in RPMI lacking amino acids (−amino acids), leucine (−leucine), or glucose (−glucose) or left untreated (control). Duplicate plates of cells deprived of leucine or glucose were stimulated for 10 minutes with 52 μg/ml leucine (−leu+leu) or 11 mM glucose (−gluc+gluc), respectively. Cells were lysed, anti-mTOR immunoprecipitates prepared, and mTOR kinase activity determined with in vitro kinase assays containing ATP-[γ-^32P] and a GST-S6K1 fusion protein (Burnett et al., PNAS 95:1432-1437 (1998)). Kinase reactions were resolved by SDS-PAGE, proteins transferred to PVDF, ^32P-incorporation into GST-S6K1 detected with autoradiography (third panel from top) and levels of mTOR (top panel) and raptor (middle panel) determined by immunoblotting. Western blot analyses of cell lysates used to prepare mTOR immunoprecipitates showing effects of nutrient conditions on the phosphorylation state and gel mobility of S6K1 in vivo (bottom two panels).
Kinase assays were performed in a volume of 10 μl at 30° C. for 20 min and contained ¼ the washed mTOR immunoprecipitates from 10 million HEK293T cells growing on a 10-cm dish, 200 ng of a GST-S6K1 fusion protein (amino acids 332-502), 1 μCi of [γ-^32P]ATP, 25 mM Hepes-KOH, pH 7.4, 50 mM KCl, 20% glycerol, 10 mM MgCl2, 4 mM MnCl2, 1 mM DTT, and 50 μM unlabeled ATP. When inhibitors were used they were added to the mTOR immunoprecipitates 10 minutes prior to the start of the kinase assay. Reactions were stopped by the addition of 5 μl of 2× sample buffer. After boiling the samples for 3 min, proteins were resolved by 8% SDS-PAGE, transferred to PVDF (poly(vinylidene difluoride)), and phosphorylated proteins visualized with autoradiography. The same blots were then used to determine the levels of mTOR and raptor by western analysis. Kinase assays using recombinant mTOR were performed as described in Burnett et al., PNAS, 95:1432-1437 (1998), except that they were washed as above with Buffer B.

S6K1 = test: In vivo phosphorylation state of S6K1 (T389) in cell lysates by western blot; assay type: cell-based, human
mTOR-raptor complex = target: T2, mTOR-raptor complex (Homo sapiens, UniProt P42345+P62942); test: mTOR-raptor interaction: raptor co-precipitated in mTOR immunoprecipitates (western blot); assay type: cell-based; conditions: for effect on mTOR-raptor interaction (complex stability): cells treated for 10 minutes: 500 mM sucrose, 1 mM H2O2, 1 μm valinomycin A, 100 mM 2-deoxyglucose
T2 construct: endogenous in cells
Excerpt: Unless otherwise stated, for mTOR immunoprecipitates prepared in the absence of the cross-linker, cells were lysed in ice-cold Buffer B (Buffer A in which Triton X-100 is replaced by 0.3% CHAPS) and immunoprecipitates were washed four times in Buffer B and twice in Wash Buffer 2.

HEK293T cells [1] = test: Cell size determination in actively growing cells (Coulter Multisizer II); conditions: three days after siRNA transfection or 20 nM rapamycin for 48 hours
Protocol: Cell diameters and volumes were determined three days after transfection using a particle size counter (Coulter Multisizer II). […] Mean±S.D. values were obtained from the indicated numbers of independent trials in which at least 10,000 cells were analyzed per trial.
(§1) Cells were then harvested, diluted 1:10 or 1:20 and replated in fresh media. At 1, 2, and 3 days after replating, the cells were harvested by trypsinization in 2 ml media, diluted 1:20 with counting solution (Isoflow Sheath Fluid, Coulter Corp.) and cell diameters and volumes determined using a particle size counter (Coulter Multisizer II). Cells between 11 and 21 μm in diameter were used for analysis. For the leucine-induced growth experiment, the siRNA transfected cells were diluted into fresh media one day after transfection and, at 24 hours after dilution the cells were deproved of leucine for a further 24 hours. The cells were then provided with leucine (52 μg/ml) and cell diameters, volumes, and numbers determined as above at 6 and 10 hours after the leucine supplementation.

HEK293T cells [2] = test: Leucine-induced growth experiment (cell size after leucine re-addition); conditions: HEK293T deprived of leucine 24 hours, then leucine 52 μg/ml; size at 6 and 10 hours; rapamycin added with leucine
Protocol: Cells were transfected with the indicated siRNAs and the experiment performed as described herein. […] Shown are mean±S.D. from samples for each time point.
as §1
Leucine was then added to the media and cell size measured at 6 and 10 hours after leucine addition.

[3] = insulin 200 nM for 25 minutes, HEK293T in serum-free media for 24 hours

effect on mTOR kinase activity of mTOR immunoprecipitates from treated cells (mTOR)	effect on mTOR-raptor interaction (complex stability) (mTOR-raptor complex)	Molecule	other results
		CNCCNS(=O)(=O)c1cccc2cnccc12 [H-8]	sensitivity of kinase activity of immunoprecipitates of endogenous mTOR (mTOR): not
		insulin	effect on phosphorylation state of S6K1 (S6K1; [3]): increased the phosphorylation state of S6K1; effect on mTOR-raptor interaction (mTOR-raptor complex; [3]): did not affect the raptor-mTOR interaction
inhibited the mTOR kinase	stabilized the interaction	OO [H2O2]	
		CO[C@H]1C[C@@H]2CC[C@@H](C)[C@@](O)(O2)C(=O)C(=O)N2CCCC[C@H]2C(=O)O[C@H]([C@H](C)C[C@@H]2CC[C@@H](O)[C@H](OC)C2)CC(=O)[C@H](C)/C=C(\C)[C@@H](O)[C@@H](OC)C(=O)[C@H](C)C[C@H](C)/C=C/C=C/C=C/1C [rapamycin]	cell diameter, mean±S.D. (HEK293T cells [1]): 14.61±0.10 μm; growth rate after leucine addition (HEK293T cells [2]): 1.02 % volume per hour
inhibited mTOR kinase activity	stabilized the mTOR-raptor interaction	O=CC[C@@H](O)[C@H](O)[C@H](O)CO [2-deoxyglucose]	
		COc1cccc(-c2cc(=O)c3ccccc3o2)c1N [PD98059]	sensitivity of kinase activity of immunoprecipitates of endogenous mTOR (mTOR): not
only a modest effect	only a modest effect	OC[C@H]1O[C@@](CO)(O[C@H]2O[C@H](CO)[C@@H](O)[C@H](O)[C@H]2O)[C@@H](O)[C@@H]1O [sucrose]	effect on phosphorylation state of S6K1 (S6K1; cells treated for 10 minutes with 500 mM sucrose): decreased the phosphorylation state of S6K1

Molecule	effect on mTOR kinase activity of mTOR immunoprecipitates from treated cells (mTOR)	effect on mTOR-raptor interaction (complex stability) (mTOR-raptor complex)	other results
CC(C)[C@@H]1NC(=O)[C@H](C)OC(=O)[C@@H](C(C)C)NC(=O)[C@@H](C(C)C)OC(=O)[C@H](C(C)C)NC(=O)[C@H](C)OC(=O)[C@@H](C(C)C)NC(=O)[C@@H](C(C)C)OC(=O)[C@H](C(C)C)NC(=O)[C@H](C)OC(=O)[C@@H](C(C)C)NC(=O)[C@@H](C(C)C)OC1=O [valinomycin]	inhibited mTOR kinase activity	stabilized the mTOR-raptor interaction	
antimycin A	inhibited mTOR kinase activity	stabilized the mTOR-raptor interaction	
